# Measured values: PubChem BioAssay AID1259407 (Chemical Carcinogenesis Research Information System (CCRIS), 2018)
# Activity calls are given as the source filed them. How the calls were made is not given here.
# Test system: CCRIS mutagenicity, Ames/micronucleus/aberration tests
# Experiment: CCRIS mutagenicity studies
# [1] = Test System: AMES SALMONELLA TYPHIMURIUM, Strain/Indicator: TA98, Metabolic Activation: NONE, Method: PREINCUBATION
# [2] = Test System: AMES SALMONELLA TYPHIMURIUM, Strain/Indicator: TA98, Metabolic Activation: RAT, LIVER, S-9, AROCLOR 1254, Method: PREINCUBATION
# [3] = Test System: AMES SALMONELLA TYPHIMURIUM, Strain/Indicator: TA100, Metabolic Activation: NONE, Method: PREINCUBATION
# [4] = Test System: AMES SALMONELLA TYPHIMURIUM, Strain/Indicator: TA100, Metabolic Activation: RAT, LIVER, S-9, AROCLOR 1254, Method: PREINCUBATION
# [5] = Test System: AMES SALMONELLA TYPHIMURIUM, Strain/Indicator: TA1535, Metabolic Activation: NONE, Method: PREINCUBATION
# [6] = Test System: AMES SALMONELLA TYPHIMURIUM, Strain/Indicator: TA98, Metabolic Activation: NONE, Method: STANDARD PLATE
# [7] = Test System: AMES SALMONELLA TYPHIMURIUM, Strain/Indicator: TA100, Metabolic Activation: NONE, Method: STANDARD PLATE
# [8] = Test System: AMES SALMONELLA TYPHIMURIUM, Strain/Indicator: TA98, Metabolic Activation: RAT, LIVER, S-9, AROCLOR 1254, Method: STANDARD PLATE
# [9] = Test System: AMES SALMONELLA TYPHIMURIUM, Strain/Indicator: TA100, Metabolic Activation: RAT, LIVER, S-9, AROCLOR 1254, Method: STANDARD PLATE
compound,measurement,setting,value
Clc1cccc(Cl)c1Cl,mutagenic call,"Test System: AMES SALMONELLA TYPHIMURIUM, Strain/Indicator: TA98, Metabolic Activation: HAMSTER, LIVER, S-9, AROCLOR 1254, Method: PREINCUBATION",inactive; negative
same,mutagenic call,[1],inactive; negative
same,mutagenic call,[2],inactive; negative
same,mutagenic call,"Test System: AMES SALMONELLA TYPHIMURIUM, Strain/Indicator: TA100, Metabolic Activation: HAMSTER, LIVER, S-9, AROCLOR 1254, Method: PREINCUBATION",inactive; negative
same,mutagenic call,[3],inactive; negative
same,mutagenic call,[4],inactive; negative
same,mutagenic call,"Test System: AMES SALMONELLA TYPHIMURIUM, Strain/Indicator: TA1535, Metabolic Activation: HAMSTER, LIVER, S-9, AROCLOR 1254, Method: PREINCUBATION",inactive; negative
same,mutagenic call,[5],inactive; negative
same,mutagenic call,"Test System: AMES SALMONELLA TYPHIMURIUM, Strain/Indicator: TA1535, Metabolic Activation: RAT, LIVER, S-9, AROCLOR 1254, Method: PREINCUBATION",inactive; negative
same,mutagenic call,"Test System: AMES SALMONELLA TYPHIMURIUM, Strain/Indicator: TA1537, Metabolic Activation: HAMSTER, LIVER, S-9, AROCLOR 1254, Method: PREINCUBATION",inactive; negative
same,mutagenic call,"Test System: AMES SALMONELLA TYPHIMURIUM, Strain/Indicator: TA1537, Metabolic Activation: NONE, Method: PREINCUBATION",inactive; negative
same,mutagenic call,"Test System: AMES SALMONELLA TYPHIMURIUM, Strain/Indicator: TA1537, Metabolic Activation: RAT, LIVER, S-9, AROCLOR 1254, Method: PREINCUBATION",inactive; negative
Cc1ccc(N)cc1O,mutagenic call,"Test System: AMES SALMONELLA TYPHIMURIUM, Strain/Indicator: TA97, Metabolic Activation: HAMSTER, LIVER, S-9, AROCLOR 1254 (10%), Method: PREINCUBATION",active; positive
same,mutagenic call,"Test System: AMES SALMONELLA TYPHIMURIUM, Strain/Indicator: TA97, Metabolic Activation: NONE, Method: PREINCUBATION",inactive; negative
same,mutagenic call,"Test System: AMES SALMONELLA TYPHIMURIUM, Strain/Indicator: TA97, Metabolic Activation: RAT, LIVER, S-9, AROCLOR 1254 (10%), Method: PREINCUBATION",active; positive
same,mutagenic call,"Test System: AMES SALMONELLA TYPHIMURIUM, Strain/Indicator: TA98, Metabolic Activation: HAMSTER LIVER S-9, AROCLOR 1254, Method: STANDARD PLATE",inactive; negative
same,mutagenic call,"Test System: AMES SALMONELLA TYPHIMURIUM, Strain/Indicator: TA98, Metabolic Activation: HAMSTER, LIVER, S-9, AROCLOR 1254 (10%), Method: PREINCUBATION",active; positive
same,mutagenic call,[1],inactive; negative
same,mutagenic call,[6],inactive; negative
same,mutagenic call,"Test System: AMES SALMONELLA TYPHIMURIUM, Strain/Indicator: TA98, Metabolic Activation: RAT LIVER S-9, AROCLOR 1254, Method: STANDARD PLATE",inactive; negative
same,mutagenic call,"Test System: AMES SALMONELLA TYPHIMURIUM, Strain/Indicator: TA98, Metabolic Activation: RAT, LIVER, S-9, AROCLOR 1254 (10%), Method: PREINCUBATION",active; positive
same,mutagenic call,"Test System: AMES SALMONELLA TYPHIMURIUM, Strain/Indicator: TA100, Metabolic Activation: HAMSTER LIVER S-9, AROCLOR 1254, Method: STANDARD PLATE",inactive; negative
same,mutagenic call,"Test System: AMES SALMONELLA TYPHIMURIUM, Strain/Indicator: TA100, Metabolic Activation: HAMSTER, LIVER, S-9, AROCLOR 1254 (10%), Method: PREINCUBATION",active; positive
same,mutagenic call,[3],inactive; negative
same,mutagenic call,[7],inactive; negative
same,mutagenic call,"Test System: AMES SALMONELLA TYPHIMURIUM, Strain/Indicator: TA100, Metabolic Activation: RAT LIVER S-9, AROCLOR 1254, Method: STANDARD PLATE",inactive; negative
same,mutagenic call,"Test System: AMES SALMONELLA TYPHIMURIUM, Strain/Indicator: TA100, Metabolic Activation: RAT, LIVER, S-9, AROCLOR 1254 (10%), Method: PREINCUBATION",active; positive
same,mutagenic call,"Test System: AMES SALMONELLA TYPHIMURIUM, Strain/Indicator: TA102, Metabolic Activation: HAMSTER LIVER S-9, AROCLOR 1254, Method: STANDARD PLATE",inactive; negative
same,mutagenic call,"Test System: AMES SALMONELLA TYPHIMURIUM, Strain/Indicator: TA102, Metabolic Activation: NONE, Method: STANDARD PLATE",inactive; negative
same,mutagenic call,"Test System: AMES SALMONELLA TYPHIMURIUM, Strain/Indicator: TA102, Metabolic Activation: RAT LIVER S-9, AROCLOR 1254, Method: STANDARD PLATE",inactive; negative
same,mutagenic call,"Test System: AMES SALMONELLA TYPHIMURIUM, Strain/Indicator: TA1535, Metabolic Activation: HAMSTER LIVER S-9, AROCLOR 1254, Method: STANDARD PLATE",inactive; negative
same,mutagenic call,"Test System: AMES SALMONELLA TYPHIMURIUM, Strain/Indicator: TA1535, Metabolic Activation: HAMSTER, LIVER, S-9, AROCLOR 1254 (10%), Method: PREINCUBATION",inactive; negative
same,mutagenic call,[5],inactive; negative
same,mutagenic call,"Test System: AMES SALMONELLA TYPHIMURIUM, Strain/Indicator: TA1535, Metabolic Activation: NONE, Method: STANDARD PLATE",inactive; negative
same,mutagenic call,"Test System: AMES SALMONELLA TYPHIMURIUM, Strain/Indicator: TA1535, Metabolic Activation: RAT LIVER S-9, AROCLOR 1254, Method: STANDARD PLATE",inactive; negative
same,mutagenic call,"Test System: AMES SALMONELLA TYPHIMURIUM, Strain/Indicator: TA1535, Metabolic Activation: RAT, LIVER, S-9, AROCLOR 1254 (10%), Method: PREINCUBATION",inactive; negative
same,mutagenic call,"Test System: AMES SALMONELLA TYPHIMURIUM, Strain/Indicator: TA1537, Metabolic Activation: HAMSTER LIVER S-9, AROCLOR 1254, Method: STANDARD PLATE",inactive; negative
same,mutagenic call,"Test System: AMES SALMONELLA TYPHIMURIUM, Strain/Indicator: TA1537, Metabolic Activation: NONE, Method: STANDARD PLATE",inactive; negative
same,mutagenic call,"Test System: AMES SALMONELLA TYPHIMURIUM, Strain/Indicator: TA1537, Metabolic Activation: RAT LIVER S-9, AROCLOR 1254, Method: STANDARD PLATE",inactive; negative
same,mutagenic call,"Test System: Mouse lymphoma, Strain/Indicator: L5178Y (tk+/tk-), Metabolic Activation: None, Method: Suspension/plate",active; positive
same,mutagenic call,"Test System: Mouse lymphoma, Strain/Indicator: L5178Y (tk+/tk-), Metabolic Activation: Rat, Liver, S-9, Aroclor 1254, Method: Suspension/plate",inactive; negative
C/C=C\C(=O)O[C@@H]1C[C@H]2O[C@@H]3C=C(C)C(=O)C[C@]3(C)[C@]1(C)[C@]21CO1,mutagenic call,[1],inactive; negative
same,mutagenic call,[2],inactive; negative
same,mutagenic call,[3],inactive; negative
same,mutagenic call,[4],inactive; negative
CC1=C(/C=C/C(C)=C/C=C/C(C)=C/C=C/C=C(C)/C=C/C=C(C)/C=C/C2=C(C)C(=O)CCC2(C)C)C(C)(C)CCC1=O,mutagenic call,[6],inactive; negative
same,mutagenic call,[8],inactive; negative
same,mutagenic call,[7],inactive; negative
same,mutagenic call,[9],inactive; negative
O=C(/C=C/c1cccc([N+](=O)[O-])c1)c1ccccc1,mutagenic call,[6],inactive; negative
same,mutagenic call,[8],inactive; negative
same,mutagenic call,[7],inactive; negative
same,mutagenic call,[9],inactive; negative
